Where two headings read alike, the source gives them in different places.
Tested on: Klebsiella pneumoniae (KPN) isolates
Experiment: MIC of compounds alone and combined with antibacterials, broth microdilution (CLSI)
Type: cell-based
Conditions: Klebsiella pneumoniae, read-out: MIC
How it was run: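 Compound MIC, and antibacterial MIC at each fixed compound level, taken by visual inspection as lowest concentration stopping growth. Inoculum: log-phase bacteria, final 5·10^5 CFU/mL, cation-adjusted Mueller-Hinton broth; 16-20 h, 35° C, ambient air.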

SMILES: C=CC1=C(C(=O)O)N2C(=O)[C@@H](NC(=O)/C(=N\OCC(=O)O)c3csc(N)n3)[C@H]2SC1 [FIX, Cefixime]
- MIC (strain KPN 200047 (TEM-1, SHV-32, CTX-M-15, OXA-1), ATB alone): > 128 µg/mL
- MIC (strain KPN 200047 (TEM-1, SHV-32, CTX-M-15, OXA-1), CLA @ 4 μg/ml+ ATB): ≤ 0.25 µg/mL
- MIC (strain KPN 200327 (TEM-1, SHV-1, CTX-M-15, OXA-1), ATB alone): 64 µg/mL
- MIC (strain KPN 200327 (TEM-1, SHV-1, CTX-M-15, OXA-1), CLA @ 4 μg/ml+ ATB): ≤ 0.25 µg/mL
- MIC (strain KPN 260251 (TEM-1, SHV-11, SHV-12, CTX-M-15, KPC-2), ATB alone): > 128 µg/mL
- MIC (strain KPN 260251 (TEM-1, SHV-11, SHV-12, CTX-M-15, KPC-2), CLA @ 4 μg/ml+ ATB): 32 µg/mL
- MIC (strain KPN 260252 (TEM-1, SHV-11, KPC-3), ATB alone): > 128 µg/mL
- MIC (strain KPN 260252 (TEM-1, SHV-11, KPC-3), CLA @ 4 μg/ml+ ATB): 128 µg/mL
- MIC (strain KPN 260376 (SHV-1, SHV-49, OXA-1), ATB alone): > 128 µg/mL
- MIC (strain KPN 260376 (SHV-1, SHV-49, OXA-1), CLA @ 4 μg/ml+ ATB): ≤ 0.25 µg/mL
- MIC (strain KPN 270077 (TEM-1, SHV-1, CTX-M-15), ATB alone): > 128 µg/mL
- MIC (strain KPN 270077 (TEM-1, SHV-1, CTX-M-15), CLA @ 4 μg/ml+ ATB): 0.5 µg/mL
- MIC (strain KPN 700603 (SHV-18, OXA-2), ATB alone): 16 µg/mL
- MIC (strain KPN 700603 (SHV-18, OXA-2), CLA @ 4 μg/ml+ ATB): 0.5 µg/mL
- MIC (strain KPN ARA (TEM-1, SHV-11, CTX-M-15, OXA-1, OXA-48), ATB alone): > 128 µg/mL
- MIC (strain KPN ARA (TEM-1, SHV-11, CTX-M-15, OXA-1, OXA-48), CLA @ 4 μg/ml+ ATB): 128 µg/mL
- MIC (strain KPN LIB (SHV-11, OXA-48), ATB alone): ≤ 0.25 µg/mL
- MIC (strain KPN LIB (SHV-11, OXA-48), CLA @ 4 μg/ml+ ATB): ≤ 0.25 µg/mL
- MIC (strain KPN UFR22_O (TEM-1, SHV-1, OXA-48), ATB alone): ≤ 0.25 µg/mL
- MIC (strain KPN UFR22_O (TEM-1, SHV-1, OXA-48), CLA @ 4 μg/ml+ ATB): ≤ 0.25 µg/mL
- MIC (strain KPN UFR23 (TEM-1, SHV-1, OXA-48), ATB alone): ≤ 0.25 µg/mL
- MIC (strain KPN UFR23 (TEM-1, SHV-1, OXA-48), CLA @ 4 μg/ml+ ATB): ≤ 0.25 µg/mL
- MIC (strain KPN UFR24 (TEM-1, SHV-2, SHV-11, OXA-1, OXA-48, OXA-47), ATB alone): > 128 µg/mL
- MIC (strain KPN UFR24 (TEM-1, SHV-2, SHV-11, OXA-1, OXA-48, OXA-47), CLA @ 4 μg/ml+ ATB): 64 µg/mL
- MIC (strain KPN UFR25 (TEM-1, SHV-11, CTX-M-15, OXA-162), ATB alone): > 128 µg/mL
- MIC (strain KPN UFR25 (TEM-1, SHV-11, CTX-M-15, OXA-162), CLA @ 4 μg/ml+ ATB): 64 µg/mL
- MIC (strain KPN UFR27 (TEM-1, SHV-28, CTX-M-15, OXA-204), ATB alone): > 128 µg/mL
- MIC (strain KPN UFR27 (TEM-1, SHV-28, CTX-M-15, OXA-204), CLA @ 4 μg/ml+ ATB): > 128 µg/mL
- MIC (strain KPN UFR28 (TEM-1, SHV-1, CTX-M-15, OXA-1, OXA-232), ATB alone): 256 µg/mL
- MIC (strain KPN UFR28 (TEM-1, SHV-1, CTX-M-15, OXA-1, OXA-232), CLA @ 4 μg/ml+ ATB): 64 µg/mL
- MIC (strain KPN UFR65 (TEM-1, SHV-11, KPC-2), ATB alone): > 128 µg/mL
- MIC (strain KPN UFR65 (TEM-1, SHV-11, KPC-2), CLA @ 4 μg/ml+ ATB): 128 µg/mL
- MIC (strain KPN UFR66 (TEM-1, SHV-11, CTX-M-15, KPC-2), ATB alone): 512 µg/mL
- MIC (strain KPN UFR66 (TEM-1, SHV-11, CTX-M-15, KPC-2), CLA @ 4 μg/ml+ ATB): 64 µg/mL
- MIC (strain KPN UFR67 (TEM-1, SHV-11, KPC-3), ATB alone): > 128 µg/mL
- MIC (strain KPN UFR67 (TEM-1, SHV-11, KPC-3), CLA @ 4 μg/ml+ ATB): 128 µg/mL
- MIC (strain KPN UFR68 (TEM-1, SHV-11, CTX-M-15, KPC-3), ATB alone): > 128 µg/mL
- MIC (strain KPN UFR68 (TEM-1, SHV-11, CTX-M-15, KPC-3), CLA @ 4 μg/ml+ ATB): 64 µg/mL
- MIC (strain KPN UFR76 (TEM-155, SHV-11, ACT-1, OXA-2), ATB alone): > 128 µg/mL
- MIC (strain KPN UFR76 (TEM-155, SHV-11, ACT-1, OXA-2), CLA @ 4 μg/ml+ ATB): > 128 µg/mL
- MIC (strain KPN UFR77 (CMY-2), ATB alone): 128 µg/mL
- MIC (strain KPN UFR77 (CMY-2), CLA @ 4 μg/ml+ ATB): 128 µg/mL
- MIC (strain KPN UFR78 (TEM-1, SHV-1, CTX-M-15, CMY-2, OXA-1, OXA-48), ATB alone): > 128 µg/mL
- MIC (strain KPN UFR78 (TEM-1, SHV-1, CTX-M-15, CMY-2, OXA-1, OXA-48), CLA @ 4 μg/ml+ ATB): > 128 µg/mL
- MIC (strain KPN UFR79 (DHA-1, OXA-1), ATB alone): > 128 µg/mL
- MIC (strain KPN UFR79 (DHA-1, OXA-1), CLA @ 4 μg/ml+ ATB): > 128 µg/mL
- MIC (strain KPN UFR80 (SHV-11, DHA-1, OXA-1), ATB alone): ≤ 0.25 µg/mL
- MIC (strain KPN UFR80 (SHV-11, DHA-1, OXA-1), CLA @ 4 μg/ml+ ATB): 0.5 µg/mL
- MIC (strain KPN UFR81 (TEM-1, SHV-1, DHA-1, OXA-48), ATB alone): > 128 µg/mL
- MIC (strain KPN UFR81 (TEM-1, SHV-1, DHA-1, OXA-48), CLA @ 4 μg/ml+ ATB): > 128 µg/mL
- MIC (strain KPN UFR215 (SHV-27, CTX-M-15), ATB alone): > 128 µg/mL
- MIC (strain KPN UFR215 (SHV-27, CTX-M-15), CLA @ 4 μg/ml+ ATB): 1 µg/mL
- MIC (strain KPN UFR216 (SHV-28, CTX-M-15), ATB alone): > 128 µg/mL
- MIC (strain KPN UFR216 (SHV-28, CTX-M-15), CLA @ 4 μg/ml+ ATB): ≤ 0.25 µg/mL
- MIC (strain KPN UFR217 (TEM-1, SHV-1, CTX-M-15), ATB alone): > 128 µg/mL
